Data published in article PMC12440824, “Chimeric deubiquitinase engineering reveals structural basis for specific inhibition of the mitophagy regulator USP30” (Nature Structural & Molecular Biology, 2025).
pIC50: −log10 of the molar value.

Experiments:
[1] = tested on: USP30 constructs (construct 1, chimeras 1–3); experiment: Ub–RhoG cleavage enzyme inhibition assay, statements across constructs; type: biochemical, human; settings: addition of hydroxyl group at the tert-butyl group
Method: Enzyme kinetics were performed in black, low-volume, non-binding-surface 384-well plates. For activity assays, 2× Ub–RhoG substrate (final concentration, 50 nM) and 2× enzyme (final concentration, 0.25–32 nM) were prepared in 20 mM HEPES, pH 8.0, 50 mM NaCl, 5 mM DTT, 0.1 mg ml^−1 BSA. Next, 10 µl of 2× enzyme solution was added in triplicate to the plate. The reaction was started by adding 10 µl of 2× substrate solution. For enzyme inhibition assays, 2× substrate (final concentration, 100 nM), 4× enzyme (final concentration, 0.1 nM) and 4× inhibitor (final concentration, 1.6 pM–1.6 μM) were prepared in 50 mM Tris-HCl, pH 8.0, 0.05 mg ml^−1 BSA, 4 mM DTT, 0.01% Tween-20. Inhibitor solution (4×) was added to 4× enzyme solution to create a 2× enzyme–inhibitor mixture. Next, 10 µl of this 2× enzyme–inhibitor mixture was then added to the plate in triplicate, and the plate was incubated at room temperature for 90 min. The reaction was started by adding 10 µl of 2× Ub–RhoG substrate. Substrate cleavage was monitored by measurement of cleaved RhoG fluorescence (excitation, 492 nm; emission, 525 nm) every 30 s for 1 h at 25 °C on a Tecan Spark plate reader. Data were analyzed with GraphPad Prism.

[2] = tested on: overexpressed USP30 F157A, I154A, A162S in HEK293 cells; experiment: Cellular ubiquitin probe competition, overexpressed USP30 F157A, I154A, A162S; type: cell-based, human; settings: 2 µM compound, 2 h
Method: HEK293 cells (8 × 10^5 cells per well) were seeded in six-well plates and cultivated for 24 h. PEI transfecting reagent (Polysciences) was pre-incubated for 10 min with the vectors in 200 μl Opti-MEM medium (2 µg DNA per well). Cells were transfected and incubated for 48 h. Following the treatment with either compounds or DMSO in fresh medium for an additional 2 h, cells were processed as described below. Cells were seeded at 8 × 10^5 cells per well and grown for 48 h. […] The medium was aspirated, and cells were washed once with ice-cold PBS. Cells were collected by scraping in lysis buffer (150 mM NaCl, 250 mM sucrose, 50 mM Tris, pH 8.0, 5 mM TCEP) supplemented with EDTA-free complete protease inhibitor cocktail and benzonase. Suspended cells were homogenized by 12 bursts of a microtip probe sonicator (Branson Sonifier 450) at 10% amplitude with pulses of 1 s on ice. Remaining cell debris was separated by centrifugation (20,817g, 5 min, 4 °C). […] After incubation for 10 min at room temperature, reactions were quenched by the addition of 4× reducing LDS sample buffer. Samples were resolved by SDS–PAGE and further analyzed via western blot. Using a Trans-Blot Turbo system (Bio-Rad, 1.0 A, 25 V, 30 min), proteins were blotted onto a nitrocellulose membrane. […]

[3] = target: USP30^ch1 (Homo sapiens, UniProt Q70CQ3); experiment: Ub–RhoG cleavage enzyme inhibition assay, chimera 1; type: biochemical; design: scale not given here; settings: mean n=3
USP30^ch1, sequence (Q70CQ3 64-502): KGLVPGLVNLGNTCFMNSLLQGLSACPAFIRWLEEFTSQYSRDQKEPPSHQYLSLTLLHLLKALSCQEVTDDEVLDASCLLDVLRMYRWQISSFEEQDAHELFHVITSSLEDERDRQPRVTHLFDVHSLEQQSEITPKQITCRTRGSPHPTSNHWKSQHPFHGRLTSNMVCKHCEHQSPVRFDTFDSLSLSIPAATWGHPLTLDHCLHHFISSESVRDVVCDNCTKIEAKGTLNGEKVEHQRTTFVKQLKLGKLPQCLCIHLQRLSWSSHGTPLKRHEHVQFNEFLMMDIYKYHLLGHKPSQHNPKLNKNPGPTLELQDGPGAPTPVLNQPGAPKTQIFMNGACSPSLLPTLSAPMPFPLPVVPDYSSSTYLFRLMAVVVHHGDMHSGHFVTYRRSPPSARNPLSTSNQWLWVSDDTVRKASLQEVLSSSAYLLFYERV
USP30^ch1, sequence (Q93009 325-395 partner): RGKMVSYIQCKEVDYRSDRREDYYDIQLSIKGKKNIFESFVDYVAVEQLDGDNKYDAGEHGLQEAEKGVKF
Method: (§1) Enzyme kinetics were performed in black, low-volume, non-binding-surface 384-well plates. […] Next, 10 µl of 2× enzyme solution was added in triplicate to the plate. The reaction was started by adding 10 µl of 2× substrate solution. […] Inhibitor solution (4×) was added to 4× enzyme solution to create a 2× enzyme–inhibitor mixture. Next, 10 µl of this 2× enzyme–inhibitor mixture was then added to the plate in triplicate, and the plate was incubated at room temperature for 90 min. The reaction was started by adding 10 µl of 2× Ub–RhoG substrate. […] Data were analyzed with GraphPad Prism.

[4] = target: USP30^ch3 F157A (Homo sapiens, UniProt Q70CQ3, F157A, form not given); experiment: Ub–RhoG cleavage enzyme inhibition assay, chimera 3 F157A; type: biochemical; settings: mean n=3
USP30^ch3 F157A, sequence (Q70CQ3 64-502 F157A, form open): as the sequence (Q70CQ3 64-502) above, with F94A counted along it
USP30^ch3 F157A, sequence (P54578 248-318 partner, form open): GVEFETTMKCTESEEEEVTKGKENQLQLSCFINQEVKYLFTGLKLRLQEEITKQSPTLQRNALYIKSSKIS
USP30^ch3 F157A, sequence (Q9P2H5 821-846 partner, form open): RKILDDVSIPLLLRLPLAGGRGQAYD
Method: as §1

[5] = target: USP30^ch3 (Homo sapiens, UniProt Q70CQ3); experiment: Thermal shift assay, USP30 ch3; type: binding; settings: 20 μM inhibitor
USP30^ch3, sequence (Q70CQ3 64-502): as the sequence (Q70CQ3 64-502) above
USP30^ch3, sequence (P54578 248-318 partner): as the sequence (P54578 248-318 partner, form open) above
Method: The thermal stability of USP30 constructs and effects of either inhibitor or Ub-PA binding were determined by thermal shift assays. Inhibitor, Ub-PA and SYPRO orange dye (Sigma, 5,000× stock in DMSO) solutions were prepared in 1× PBS, 4 mM DTT. Inhibitor/Ub-PA was prediluted to 100 µM, and SYPRO orange dye was prediluted to 50× (from the commercial stock). Mixtures of protein, inhibitor/Ub-PA and SYPRO were prepared with inhibitor/Ub-PA at a final concentration of 20 μM, SYPRO at a final concentration of 4× and protein at a final concentration of 2 μM for c1, 4 μM for ch1, ch4 and c2 and 3 μM for ch2 and ch3. Samples were added in triplicate to a white 96-well PCR plate (Bio-Rad). Fluorescence intensity was monitored (excitation, 450–490 nm; emission, 560–580 nm) at a gradient of 20–90 °C (increment of 0.3 °C, hold for 5 s before read) on a real-time PCR system (Bio-Rad).

[6] = tested on: recombinant USP30; settings: read-out: Ub–Rho IC50 against recombinant USP30; cited from earlier work

CC(C)(CO)NS(=O)(=O)c1ccc(NC(=O)[C@H](Cc2ccccc2)NC(=O)c2ccc(F)cc2)cc1 [NK036]
decrease in potency relative to compound 39 [1]: about one order of magnitude
inhibition of overexpressed USP30 F157A, I154A, A162S in cells [2]: refractory to inhibition

CC(C)(C)NS(=O)(=O)c1ccc(NC(=O)[C@H](Cc2ccccc2)NC(=O)c2ccc(F)cc2)cc1 [compound 39]
USP30ch1 activity ([3]; inhibitor 0.0015625 nM): 0.9737
USP30ch1 activity ([3]; inhibitor 0.00625 nM): 0.9837
USP30ch1 activity ([3]; inhibitor 0.025 nM): 0.8913
USP30ch1 activity ([3]; inhibitor 0.1 nM): 0.7529
USP30ch1 activity ([3]; inhibitor 0.39 nM): 0.5726
USP30ch1 activity ([3]; inhibitor 1.56 nM): 0.3796
USP30ch1 activity ([3]; inhibitor 6.25 nM): 0.2212
USP30ch1 activity ([3]; inhibitor 25 nM): 0.1115
USP30ch1 activity ([3]; inhibitor 100 nM): 0.04824
USP30ch1 activity ([3]; inhibitor 400 nM): 0.02114
USP30ch1 activity ([3]; inhibitor 1600 nM): 0.0058
USP30ch3 F157A activity ([4]; inhibitor 0.001563 nM): 0.978
USP30ch3 F157A activity ([4]; inhibitor 0.00625 nM): 1.043
USP30ch3 F157A activity ([4]; inhibitor 0.025 nM): 0.9706
USP30ch3 F157A activity ([4]; inhibitor 0.1 nM): 0.9583
USP30ch3 F157A activity ([4]; inhibitor 0.39 nM): 0.8963
USP30ch3 F157A activity ([4]; inhibitor 1.56 nM): 0.8924
USP30ch3 F157A activity ([4]; inhibitor 6.25 nM): 0.7707
USP30ch3 F157A activity ([4]; inhibitor 25 nM): 0.6122
USP30ch3 F157A activity ([4]; inhibitor 100 nM): 0.362
USP30ch3 F157A activity ([4]; inhibitor 400 nM): 0.2241
USP30ch3 F157A activity ([4]; inhibitor 1600 nM): 0.2066
Tm in presence of compound, USP30^ch3 [5]: 61.5 °C
pIC50 [6]: 7.70 to 8.70
